Experimental data: patent US20250179059A1 (The Regents of the University of California, priority 2021, published 2025)
Read-outs that look alike come from different tables or passages of the source.

What was measured:
[1] = biological target: T1, human BRD4 bromodomain II (Homo sapiens, UniProt O60885); assay: Bromodomain binding assay (AlphaScreen), BRD4 BDII
T1 construct: human BRD4 bromodomain II [based on Genbank NM_058243, residues 349-460]; host or cells: E. coli
Summary of the method: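 Tagged BRD4 BDI or BDII constructs, expressed in E. coli, competed against a K5/K8/K12/K16-acetylated biotin-H4 peptide. Proximity signal between bead pairs after room-temperature incubations gave concentration-response curves, from which IC50 was derived.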

[2] = tested on: human SKM-1 acute myeloid leukemia cells; assay: SKM-1 antiproliferation cell-based assay (ATPlite); conditions: Homo sapiens
Summary of the method: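 Log-phase cells in RPMI 1640/15% FBS were seeded at 34722 cells/mL and exposed for 4 days to nine-concentration DMSO serial dilutions in triplicate. Viability was read as ATP luminescence (ATPlite 1step), and IC50 values came from variable-slope non-linear regression.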

[3] = BRD4 BDII AlphaScreen assay, read-out: BRD4 BD2 IC50
[4] = SKM-1, SKM-1 antiproliferation assay
[5] = AlphaScreen assay, Table C2, read-out: BRD4 BDII IC50
[6] = SKM-1, 96 h, SKM-1 antiproliferation assay, 4 days, Table C2

IC50 [1, 3] [nM]	GI50 [2, 4] [nM]	IC50 [1, 5] [nM]	GI50 [2, 6] [nM]	SMILES
> 100	> 3000			CC(=O)Nc1ccc(-c2cc(F)cc(-c3cccc(N4CCN(C(C)(C)C)CC4)c3)c2O)cn1 [Example 908, N-(5-(3′-(4-(tert-butyl)piperazin-1-yl)-5-fluoro-2-hydroxy-[1,1′-biphenyl]-3-yl)pyridin-2-yl)acetamide]
		0.01 to 1	0.3 to 30	Cn1ccn(-c2ccc(-c3cc(F)cc(-c4ccnc(N5CCNC(CCO)C5)c4)c3O)cc2Cl)c1=O (stereo not shown) [Example 640, 1-(3-chloro-5′-fluoro-2′-hydroxy-3′-(2-(3-(2-hydroxyethyl)piperazin-1-yl)pyridin-4-yl)-[1,1′-biphenyl]-4-yl)-3-methyl-1H-imidazol-2(3H)-one]
		0.01 to 1	0.3 to 30	Cn1ccn(-c2ccc(-c3cc(F)cc(-c4ccnc(N5CCN6CCCC6C5)c4)c3O)cc2Cl)c1=O (stereo not shown) [Example 625, 1-(3-chloro-5′-fluoro-3′-(2-(hexahydropyrrolo[1,2-a]pyrazin-2(1H)-yl)pyridin-4-yl)-2′-hydroxy-[1,1′-biphenyl]-4-yl)-3-methyl-1H-imrdazol-2(3H)-one]
1 to 10	30 to 300			Cn1ccn(-c2ccc(-c3cc(F)cc(-c4cc(N5CCN(C(C)(C)C)CC5)no4)c3O)cc2Cl)c1=O [Example 905, 1-(3′-(3-(4-(tert-butyl)piperazin-1-yl)isoxazol-5-yl)-3-chloro-5′-fluoro-2′-hydroxy-[1,1′-biphenyl]-4-yl)-3-methyl-1H-imidazol-2(3H)-one]
		0.01 to 1	0.3 to 30	CN1CCCC12CCN(c1cc(-c3cc(F)cc(-c4ccc(-n5ccn(C)c5=O)c(Cl)c4)c3O)ccn1)C2 (stereo not shown) [Example 637, 1-(3-chloro-5′-fluoro-2′-hydroxy-3′-(2-(1-]
1 to 10	0.3 to 30			CC(C)N1CCCC12CCN(c1cc(-c3cc(F)cc(-c4ccc(-n5ccn(C)c5=O)c(Cl)c4)c3O)cnc1N)C2 (stereo not shown) [Example 968, 1-(3′-(6-amino-5-(1-isopropyl-1,7-diazaspiro[4.4]nonan-7-yl)pyridin-3-yl)-3-chloro-5′-fluoro-2′-hydroxy-[1,1′biphenyl]-4-yl)-3-methyl-1H-imidazol-2(3H)-one]
		1 to 10	30 to 300	Cn1ccn(-c2ccc(-c3cc(F)cc(-c4ccc(Cl)c(N5CC[C@@](C)(O)C5)c4)c3O)cc2Cl)c1=O [Example 842, (R)-1-(3,4″-dichloro-5′-fluoro-2′-hydroxy-3″-(3-hydroxy-3-methylpyrrolidin-1-yl)-[1,1′:3′,1″-terphenyl]-4-yl)-3-methyl-1H-imidazol-2(3H)-one]
		> 100	≥ 3000	Cc1cccn(-c2ccc(-c3cc(F)cc(-c4ccnc(N5CCNCC5)c4)c3O)cc2Cl)c1=O [Example 496, 1-(3-chloro-5′-fluoro-2′-hydroxy-3′-(2-(piperazin-1-yl)pyridin-4-yl)-[1,1′-biphenyl]-4-yl)-^3-methylpyridin-2(1H)-one]
> 100	300 to 3000			Cn1ccn(-c2ccc(-c3cc(F)cc(-c4cc(N5CCN(C(C)(C)C)CC5)ncn4)c3O)cc2Cl)c1=O [Example 942, 1-(3′-(6-(4-(tert-butyl)piperazin-1-yl)pyrimidin-4-yl)-3-chloro-5′-fluoro-2′-hydroxy-[1,1′-biphenyl]-4-yl)-3-methyl-1H-imidazol-2(3H)-one]
		10 to 100	300 to 3000	O=C1NCCCN1c1ccc(-c2cc(F)cc(-c3ccnc(N4CCNCC4)c3)c2O)cc1F [Example 278, 1-(3,5′-difluoro-2′-hydroxy-3′-(2-(piperazin-1-yl)pyridin-4-yl)-[1,1′-biphenyl]-4-yl)tetrahydropyrimidin-2(1H)-one]
		> 100	300 to 3000	CCC1CCN(c2ccc(-c3cccc(-c4ccnc(N5CCNCC5)c4)c3O)cc2Cl)C1=O (stereo not shown) [Example 345, 1-(3-chloro-2′-hydroxy-3′-(2-(piperazin-1-yl)pyridin-4-yl)-[1,1′-biphenyl]-4-yl)-3-ethylpyrrolidin-2-one]
1 to 10	0.3 to 30			Cc1cc(-c2ccc(-n3ccn(C)c3=O)c(Cl)c2)c(O)c(-c2cnc(N(C)C)c(N3CCC4(CCN4C(C)C)C3)c2)n1 (stereo not shown) [Example 990, 1-(2-chloro-4-(6′-(dimethylamino)-3-hydroxy-5′-(1-isopropyl-1,6-diazaspiro[3.4]octan-6-yl)-6-methyl-[2,3′-bipyridin]-4-yl)phenyl)-3-methyl-1H-imidazol-2(3H)-one]
> 100	300 to 3000			Cn1ccn(-c2c(OC3CC3)ccc(-c3cc(F)cc(-c4cccc(N5CCN(C(C)(C)C)CC5)c4)c3O)c2Cl)c1=O [Example 931, 1-(3″-(4-(tert-butyl)piperazin-1-yl)-2-chloro-4-cyclopropoxy-5′-fluoro-2′-hydroxy-[1,1′:3′,1″-terphenyl]-3-yl)-3-methyl-1,3-dihydro-2H-imidazol-2-one]
		0.01 to 1	0.3 to 30	CC(C)N1CCN(c2cc(-c3cc(F)cc(-c4ccc(-n5ccn(C)c5=O)c(Cl)c4)c3O)cn(C)c2=O)CC1 [Example 661, 5-(3′-chloro-5-fluoro-2-hydroxy-4′-(3-methyl-2-oxo-2,3-dihydro-1H-imidazol-1-yl)-[1,1′-biphenyl]-3-yl)-3-(4-isopropylpiperazin-1-yl)-1-methylpyridin-2(1H)-one]
		10 to 100	300 to 3000	CC(=O)Nc1ccc(-c2cccc(-c3ccnc(C#CCN)c3)c2O)cc1F [Example 296, N-(3′-(2-(3-aminoprop-1-yn-1-yl)pyridin-4-yl)-3-fluoro-2′-hydroxy-[1,1′-biphenyl]-4-yl)acetamide]
0.01 to 1	0.3 to 30			COc1ncc(-c2nc(C)cc(-c3ccc(-n4ccn(C)c4=O)c(Cl)c3)c2O)cc1N1CC[C@@]2(CCN2C(C)C)C1 [Example 1023, (S)-1-(2-chloro-4-(3-hydroxy-5′-(1-isopropyl-1,6-diazaspiro[3.4]octan-6-yl)-6'-methoxy-6-methyl-[2,3′-bipyridin]-4-yl)phenyl)-3-methyl-1,3-dihydro-2H-imidazol-2-one]
10 to 100	30 to 300			Cn1cc(-c2ccc(-n3ccn(C)c3=O)c(Cl)c2)c(O)c(-c2cccc(N3CCN(C(C)(C)C)CC3)c2)c1=O [Example 1018, 3-(3-(4-(tert-butyl)piperazin-1-yl)phenyl)-5-(3-chloro-4-(3-methyl-2-oxo-2,3-dihydro-1H-imidazol-1-yl)phenyl)-4-hydroxy-1-methylpyridin-2(1H)-one]
		0.01 to 1	0.3 to 30	CC(=O)NC1CN(c2cc(-c3cc(F)cc(-c4ccc(-n5ccn(C)c5=O)c(Cl)c4)c3O)ccn2)CC12CC2 (stereo not shown) [Example 767, N-(5-(4-(3′-chloro-5-fluoro-2-hydroxy-4′-(3-methyl-1-oxo-2,3-dihydro-1H-imidazol-1-yl)-[1,1′-biphenyl]-3-yl)pyridin-2-yl)-5-azaspiro[2.4]heptan-7-yl)acetamide]
		1 to 10	30 to 300	Cn1cc(-c2cc(F)cc(-c3ccc(-n4ccn(C)c4=O)c(Cl)c3)c2O)cc(N2CCC(C)(O)C2)c1=O (stereo not shown) [Example 725, 5-(3′-chloro-5-fluoro-2-hydroxy-4′-(3-methyl-2-oxo-2,3-dihydro-1H-imidazol-1-yl)-[1,1′-biphenyl]-3-yl)-3-(3-hydroxy-3-methylpyrrolidin-1-yl)-1-methylpyridin-2(1H)-one]
0.01 to 1	0.3 to 30			COc1ncc(-c2cc(F)cc(-c3ccc(-n4ccn(C)c4=O)c(Cl)c3)c2O)cc1N1CC2(CC2)[C@](C)(O)C1 [Example 875]
		1 to 10	300 to 3000	CCc1cc(-c2ccnc(N3CCNCC3)c2)c(O)c(-c2ccc(N3CCN(C)C3=O)c(Cl)c2)c1 [Example 311, l-(3-chloro-5′-ethyl-2′-hydroxy-3′-(2-(piperazin-1-yl)pyridin-4-yl)-[1,1′-biphenyl]-4-yl)-3-methylimidazolidin-2-one]
		0.01 to 1	0.3 to 30	Cn1ccn(-c2ccc(-c3cc(F)cc(-c4cc(-c5cn[nH]c5)nc(N5CCNCC5)c4)c3O)cc2Cl)c1=O [Example 552, 1-(3-chloro-5′-fluoro-2′-hydroxy-3′-(2-(piperazin-1-yl)-6-(1H-pyrazol-4-yl)pyridin-4-yl)-[1,1′-biphenyl]-4-yl)-3-methyl-1H-imidazol-2(3H)-one]
		0.01 to 1	30 to 300	Cn1ccn(-c2ccc(-c3cc(F)cc(-c4ccnc(N5CC[C@H](C(N)=O)C5)c4)c3O)cc2Cl)c1=O [Example 760]
1 to 10	30 to 300			CNc1cc(-c2ccc(-n3ccn(C)c3=O)c(Cl)c2)c(O)c(-c2cccc(N3CCN(C(C)(C)C)CC3)c2)n1 [Example 1031, 1-(4-(2-(3-(4-(tert-Butyl)piperazin-1-yl)phenyl)-3-hydroxy-6-(methylamino)pyridin-4-yl)-2-chlorophenyl)-3-methyl-1H-imidazol-2(3H)-one]

SMILES	IC50 [1, 3] [nM]	GI50 [2, 4] [nM]	IC50 [1, 5] [nM]	GI50 [2, 6] [nM]
CC(C)N1C2CCC1CN(c1cncc(-c3cc(F)cc(-c4ccc(-n5ccn(C)c5=O)c(Cl)c4)c3O)c1)C2 [Example 740, 1-(3-chloro-5′-fluoro-2′-hydroxy-3′-(5-(8-isopropyl-3,8-diazabicyclo[3.2.1]octan-3-yl)pyridin-3-yl)-[1,1′-biphenyl]-4-yl)-3-methyl-1H-imidazol-2(3H)-one]			0.01 to 1	0.3 to 30
CC(C)N1C2CCC1CN(c1cc(-c3cc(F)cc(-c4ccc(-n5ccn(C)c5=O)c(Cl)c4)c3O)ccn1)C2 [Example 730, 1-(3-chloro-5′-fluoro-2′-hydroxy-3′-(2-(8-isopropyl-3,8-diazabicyclo[3.2.1]octan-3-yl)pyridin-4-yl)-[1,1′-biphenyl]-4-yl)-3-methyl-1H-imidazol-2(3H)-one]			0.01 to 1	0.3 to 30
